The text below walks through data of PMC6934184, “Selective DNA-PKcs inhibition extends the therapeutic index of localized radiotherapy and chemotherapy” (The Journal of Clinical Investigation, 2019).

This assay addresses T1, PIM1 (Homo sapiens, UniProt P11309).
T1 construct: purchased Thermo Fisher Scientific (Life Technologies) SelectScreen
The assay is described as follows: SelectScreen Z'LYTE. It counts as biochemical. The essentials:
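Percent values come from Thermo SelectScreen profiling of NU5455, combining activity and binding assays. CSF1R was run in Z'LYTE format at Km app ATP, and CAMK1 in Adapta format with ATP listed at 10.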

T1 sequence (P11309 whole entry): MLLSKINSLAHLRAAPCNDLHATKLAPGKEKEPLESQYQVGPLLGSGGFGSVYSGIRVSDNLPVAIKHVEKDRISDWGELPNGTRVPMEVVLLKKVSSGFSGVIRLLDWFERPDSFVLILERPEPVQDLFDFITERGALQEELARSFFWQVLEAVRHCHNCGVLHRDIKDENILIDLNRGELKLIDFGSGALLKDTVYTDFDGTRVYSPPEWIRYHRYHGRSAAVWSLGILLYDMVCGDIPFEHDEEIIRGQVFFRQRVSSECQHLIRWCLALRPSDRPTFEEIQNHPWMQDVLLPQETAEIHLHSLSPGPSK

By inhibition is commonly meant the relative decrease from the control value, in per cent. As for `CN(C(=O)CN1CCOCC1)c1ccc2sc3c(-c4cccc5c(=O)cc(N6CC7CCC(C6)O7)oc45)cccc3c2c1` [NU5455], the inhibition at 1 µM was -1%.
